In patent US8357692B2, “Methods of treatment of bone degenerative diseases” (Washington University, priority 2010, dated 2013):
“Also recorded” adds a separate entry of the source. Like-named read-outs stand apart in the source and are kept apart here.

Key:
P. falciparum FCR-3 = details: cited from earlier work; for antimalarial activity and selectivity in words: against P. falciparum in vitro
FM3A mouse mammary cells = details: cited from earlier work
[1] = test system: coculture of bone marrow macrophages (BMMs) with osteoblasts; experiment: Osteoclast formation in coculture of bone marrow macrophages with osteoblasts; format: cell-based, mice; details: BMMs with primary osteoblasts, Vitamin D, varying concentrations
Description: Calvaria osteoblast isolation and culture: Whole calvaria were extracted from 3-4 day old pups and cleaned of soft and periostial tissue. Osteoblasts were liberated by 3×20 minute collagenase treatment at 37 degrees, shaking. Osteoblasts were transduced with appropriate virally expressed proteins when 50% confluent, selected with the appropriate antibiotic for 4 days, then plated for experiments. For cocultures, BMMs were cultured for 4 days prior to being lifted and then cultured with osteoblasts in α-MEM media containing pen/strep, 10% FBS and 10 nM VitD3, plus IL-17 or other cytokines where indicated.
To test whether IL-17 signaling is important in the pathogenesis of osteoporosis, the inventors mimicked the most common human form of osteoporosis, that of estrogen deficiency, by removing ovaries (ovx) in mice. […] Four weeks later, Micro-CT, a sensitive and specific measure of bone volume, was used to assess trabecular Bone Volume per Total Volume measured in the distal femora. […] Ovariectomized mice (n=5-7 mice per group) were treated with IL-17 blocking antibody or isotype control for two and four weeks and distal femora were analyzed by micro-CT.
To test the function of IL-17 signaling in the osteoblast, the inventors first determined the IL-17 receptor is expressed in osteoblasts, and its expression is unaffected by TNFα or IL-17 stimulation. […]

osteoblasts = experiment: BrdU incorporation in osteoblasts; format: cell-based, mice; details: 10 ng/ml, 24 hours, IL-17 receptor WT and KO osteoblasts
Description: To test the function of IL-17 signaling in the osteoblast, the inventors first determined the IL-17 receptor is expressed in osteoblasts, and its expression is unaffected by TNFα or IL-17 stimulation. Primary osteoblasts were stimulated with vehicle control, IL-17 (10 ng/ml), TNF (5 ng/ml), or a combination of the two for 24 hours, and RT-PCR for the IL-17 receptor and actin was performed (FIG. 6). Next the inventors cultured BMMs in combination with primary osteoblasts, Vitamin D, and varying IL-17 concentrations. Osteoblasts were lifted, then osteoclasts were fixed and TRAP stained. […] Primary osteoblasts were stimulated with IL-17 or vehicle control for 24 hours, and RT-PCR was performed using primers for RANKL or actin. […] IL-17 receptor WT and KO osteoblasts were cultured with IL-17 (10 ng/ml) and BrdU for 24 hours, after which BrdU incorporation was measured by absorptiometry.

RANKL = experiment: RT-PCR for RANKL in primary osteoblasts; format: cell-based, mice; details: 24 hours
Description: RT-PCR: RNA was isolated using RNeasy kits (Qiagen); RLT lysis buffer was supplemented with β-mercaptoethanol (1%). Purified RNA was treated with DNase I (Invitrogen; Carlsbad, Calif.) prior to reverse transcription (RT). RT was performed using SuperScript III (Invitrogen). A negative control using RNA not subjected to reverse transcription was included in each assay. Quantitative PCR (qPCR) was performed using Applied Biosystems's (Foster City, Calif.) Power SYBR green master mix and gene specific primers. The qPCR reaction was run on Applied Biosystem's ABI Prism 7000. Transcript levels were normalized to cyclophilin.
To test the function of IL-17 signaling in the osteoblast, the inventors first determined the IL-17 receptor is expressed in osteoblasts, and its expression is unaffected by TNFα or IL-17 stimulation. Primary osteoblasts were stimulated with vehicle control, IL-17 (10 ng/ml), TNF (5 ng/ml), or a combination of the two for 24 hours, and RT-PCR for the IL-17 receptor and actin was performed (FIG. 6). Next the inventors cultured BMMs in combination with primary osteoblasts, Vitamin D, and varying IL-17 concentrations. Osteoblasts were lifted, then osteoclasts were fixed and TRAP stained. […] IL-17 receptor WT and KO osteoblasts were cultured with IL-17 (10 ng/ml) and BrdU for 24 hours, after which BrdU incorporation was measured by absorptiometry.

bone formation = experiment: Bone formation assay (calcein double labeling); format: in vivo; details: mice treated daily for 14 days, versus PBS control
Description: Bone formation assay (calcein double labeling): Mice were injected with 7.5 mg/kg calcein (Sigma-Aldrich; St. Louis, Mo.). Five days later mice were injected again, and tibias were harvested after an additional 2 days for histologic analysis. Dynamic assessment of trabecular bone formation was determined on non-decalcified sections using BioQuant software (Bioquant; Nashville, Tenn.). This software provided measures of bone surface, percent single-(sLS/BS) and double-labeled (dLS/BS) bone surface, mineralizing surface (MS/BS), mineral apposition rate (MAR), and bone formation rate (BFR/BS). Trabecular bone measurements were taken from a region encompassing a 500 μm-long field, across the width of the bone (located 100 μm below the growth plate). For each animal, 2 serial sections were analyzed and the measurements averaged. Pictures were obtained using an Olympus 1×51 fluorescent microscope fitted with Olympus DP70 camera (Olympus; Center Valley, Pa.).
Since Halofuginone inhibits type I collagen synthesis by fibroblasts and other cells, bone formation rates were tested to determine whether the rates are reduced in mice treated with the chemical. Mice were treated daily with HL or vehicle control for 14 days, while Calcein was injected on day 7 and 12, and Mineral Apposition Rates (MAR) and Bone Formation Rates (BFR) were determined.

Body composition by MRI = format: in vivo, mice; details: 12 weeks of treatment, versus PBS
Description: MRI: Measurements of body composition were performed using the magnetic resonance imaging facility located at the Animal Model Research Core at Washington University (CNRU grant NIB P30 DK56341).
IL-17A inhibits adipocyte differentiation from human mesenchymal stem cells (Shin et al., Biochem. Pharmacol., 77(12), 1835-1844, 2009). IL17R−/− mice are heavier and have higher leptin levels, which is a marker of adopocyte mass (Galic et al., Mol. Cell Endocrinol., 316(2), 129-139, 2010; Goswami et al., Eur J Immunol, 39(10), 2831-2839, 2009). Leptin can stimulate IL-17 production (Liu et al., Br. J. Ophthalmol., 92(4), 557-561, 2008), and blood IL-17 levels are increased in obese women (Sumarac-Dumanovic et al., Int. J. Obes. (Lond), 33(1), 151-156, 2009). […] Eight week old mice (n=6 mice per group) were treated with Halofuginone or PBS for 12 weeks, after which body content was measured using MRI.

[2] = test system: ovariectomy-induced bone loss; experiment: Ovariectomy-induced bone loss in mice, micro-CT of distal femora; format: in vivo
[3] = test system: CD4+ T-cells producing IL-17 (Th17 cells); experiment: Flow cytometry of spleen cells for CD4+ T-cells producing IL-17; format: in vivo; details: ovx mice treated daily for two weeks
fibrosis accumulation = details: rat urethral stricture, cirrhosis, pulmonary fibrosis models; cited from earlier work
serum CTx = experiment: Serum CTx ELISA in ovariectomized mice; format: in vivo; details: ovx mice treated daily, two weeks, relative to sham operated mice
[4] = test system: IL-17 production and TH17 cell differentiation; details: cited from earlier work
collagen α1(I) = details: cited from earlier work
[5] = healthy male volunteers, cited from earlier work
[6] = Table 1, against P. falciparum FCR-3, in vitro, read-out: EC50 (M) antimalarial activity
[7] = read-out: EC50 (M) cytotoxicity, Table 1, against FM3A mouse mammary cells
[8] = Table 2, against P. falciparum FCR-3, in vitro, read-out: EC50 (M) antimalarial activity
[9] = read-out: EC50 (M) cytotoxicity, Table 2, against FM3A mouse mammary cells

O=C(C[C@H]1NCCC[C@@H]1O)Cn1ccc2ccccc2c1=O [compound 14]
EC50 (P. falciparum FCR-3; [6]): 5e-07 M | EC50 (FM3A mouse mammary cells; [7]): > 1.6e-05 M

O=C(C[C@H]1NCCC[C@@H]1O)Cn1cnccc1=O [compound 12]
EC50 (P. falciparum FCR-3; [6]): 6e-07 M | EC50 (FM3A mouse mammary cells; [7]): > 1.9e-05 M

O=c1ccncn1CC1(O)C[C@@H]2NCCC[C@@H]2O1 (stereo partly drawn) [compound 13]
EC50 (P. falciparum FCR-3; [6]): 4e-08 M | EC50 (FM3A mouse mammary cells): 7e-06 M

O=C(C[C@H]1NCCC[C@@H]1O)Cn1cnc2ccccc2c1=O [compound 1, febrifugine]
EC50 (P. falciparum FCR-3; [6]): 7e-10 M | EC50 (FM3A mouse mammary cells; [7]): 1.7e-07 M

O=c1c2ccccc2ncn1CC1(O)C[C@@H]2NCCC[C@@H]2O1 (stereo partly drawn) [compound 2, isofebrifugine]
EC50 (P. falciparum FCR-3; [6]): 3.4e-09 M | EC50 (FM3A mouse mammary cells): 1.8e-07 M

O=c1c2ccccc2ccn1CC1(O)C[C@@H]2NCCC[C@@H]2O1 (stereo partly drawn) [compound 15]
EC50 (P. falciparum FCR-3; [6]): 2.1e-06 M | EC50 (FM3A mouse mammary cells): > 6.3e-06 M

O=c1c2ccccc2ncn1CC(O)C[C@H]1NCCC[C@@H]1O (stereo partly drawn) [compound 8]
EC50 (P. falciparum FCR-3; P. falciparum in vitro, read-out: EC50, in vitro antimalarial activity): 2e-08 M | antimalarial activity and selectivity in words (P. falciparum FCR-3): strongly active and selective | EC50 (FM3A mouse mammary cells; [7]): 1.5e-05 M

CNc1ccccc1C(=O)N[C@H]1C(O)=C[C@@H]2[C@@H](O)CCCN2C1(C)C [compound 39]
EC50 (P. falciparum FCR-3; [8]): 6e-07 M | EC50 (FM3A mouse mammary cells; [9]): > 1.7e-05 M

IL-17: interleukin-17, cytokine promoting osteoclast formation, added to cultures
osteoclast formation [1]: potently induced osteoclast formation | osteoblast proliferation (BrdU incorporation) (osteoblasts): does not affect osteoblast proliferation | RANKL mRNA expression in the osteoblast (RANKL): induced by IL-17

O=C(CC1NCCCC1=O)Cn1cnc2ccccc2c1=O (stereo not drawn) [compound 7]
EC50 (P. falciparum FCR-3; [6]): 2e-08 M | antimalarial activity and selectivity in words (P. falciparum FCR-3): potential antimalarial activity with high selectivity | EC50 (FM3A mouse mammary cells; [7]): 1e-05 M

O=C(C[C@@H]1NCCC[C@H]1O)Cn1cnc2cc(Br)c(Cl)cc2c1=O [Halofuginone, 7-Bromo-6-chloro-3-[3-[(2S,3R)-3-hydroxy-2-piperidinyl]-2-oxopropyl]-4-quinazolinone]
bone formation rates (bone formation): does not affect bone formation; also recorded: equivalent bone formation rates | percent body fat (Body composition by MRI): reduced percent body fat | percent lean mass (Body composition by MRI): small but statistically significant increase | total fat mass (Body composition by MRI): significantly less total fat mass | Connectivity Density ([2]; four weeks after ovariectomy, daily injection): completely protected | ovariectomy-induced bone loss ([2]; four weeks post-ovx): lost significantly less bone than PBS injected mice; also recorded: protects from ovariectomy-induced bone loss; also recorded: lose significantly less bone | BV/TV, BV, connectivity density, trabecular thickness, and trabecular number ([2]; ovx mice, daily treatment, four weeks, relative to sham): but not in Halofuginone treated ovx mice relative to sham | Bone volume per total volume (BV/TV) ([2]; ovx mice, daily treatment, two weeks): significantly lower in vehicle treated ovx mice compared with either sham or Halofuginone treated ovx mice | ovariectomy-induced bone loss ([2]; two weeks post-ovx): lost significantly less bone than PBS treated mice; also recorded: protects from ovariectomy-induced bone loss; also recorded: lose significantly less bone | percentage of CD4+ T-cells producing IL-17 [3]: reduces Th17 cells; also recorded: significantly reduced | fibrosis accumulation (fibrosis accumulation): inhibit fibrosis accumulation | serum CTx (serum CTx): reduces serum CTx; also recorded: blunted, non-statistically significant, increase | TGFβ inhibition ([4]; at concentrations that inhibit IL-17 production): no TGFβ inhibition is seen | IL-17 production and TH17 cell differentiation [4]: inhibits IL-17 production and TH17 cell differentiation | Collagen type II or III (collagen α1(I)): not inhibited | collagen α1(I) mRNA and protein levels (collagen α1(I); variety of cells): inhibits collagen α1(I) mRNA and protein levels | maximal tolerated dose ([5]; daily oral dose): 1.5 mg | tolerability ([5]; oral, 1.5 to 2.5 mg): moderately tolerated | tolerability of single oral doses ([5]; single oral doses of 0.07 and 0.5 mg): safe and well tolerated

CC1(C)[C@@H](N2CNc3ccccc3C2=O)C(O)=C[C@@H]2[C@@H](O)CCCN21 [compound 38]
EC50 (P. falciparum FCR-3; [8]): 4.2e-07 M | EC50 (FM3A mouse mammary cells; [9]): > 1.6e-05 M

CCN(CC)CCCC(C)Nc1ccnc2cc(Cl)ccc12 (stereo not drawn) [chloroquine]
EC50 (P. falciparum FCR-3; [6]): 1.8e-08 M | EC50 (FM3A mouse mammary cells; [7]): 3.2e-05 M

C[C@@H]1CC[C@H]2[C@@H](C)C(=O)O[C@@H]3O[C@@]4(C)CC[C@@H]1[C@]32OO4 [artemisinin]
EC50 (P. falciparum FCR-3; [6]): 1e-08 M | EC50 (FM3A mouse mammary cells): 1e-05 M
